{"source": "ChEMBL document CHEMBL5500404", "about": "“Discovery and Development of NLRP3 Inhibitors Targeting the LRR Domain to Disrupt NLRP3-NEK7 Interaction for the Treatment of Rheumatoid Arthritis” (J Med Chem, 2024)", "key": {"[1]": {"biological_target": "T1, Interferon-inducible protein AIM2 (Homo sapiens) (UniProt O14862)", "T1 sequence (whole entry)": "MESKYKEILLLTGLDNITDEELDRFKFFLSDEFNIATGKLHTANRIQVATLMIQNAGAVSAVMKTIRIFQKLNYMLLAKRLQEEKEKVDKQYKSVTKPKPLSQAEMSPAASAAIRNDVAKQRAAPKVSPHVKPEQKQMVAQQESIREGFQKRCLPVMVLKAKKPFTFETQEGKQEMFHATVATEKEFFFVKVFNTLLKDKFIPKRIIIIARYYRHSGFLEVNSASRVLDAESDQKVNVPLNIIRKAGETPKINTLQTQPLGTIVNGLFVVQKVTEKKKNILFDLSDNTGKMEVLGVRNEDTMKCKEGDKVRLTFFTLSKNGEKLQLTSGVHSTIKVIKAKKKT", "assay": "Inhibition of AIM2 inflammasome in poly(DA:DT)-induced human THP-M cells assessed as inhibition of IL-1beta level at 20 to 60 uM pretreated for 24 hrs followed by stimulated with LPS by ELISA", "assay_type": "cell-based", "details": "dose 20-60 µM"}, "THP-M [2]": {"tested_on": "THP-M", "assay": "Reduction of reactive oxygen species production in human THP-M cells pretreated for 24 hrs followed by stimulated with LPS for 3 hrs and ATP for 1 hr by Mitochondrial damage experiment", "assay_type": "functional, cell-based", "details": "time 28.0 hrs"}, "THP-M [3]": {"tested_on": "THP-M", "assay": "Effect on transcription of NLRP3 in LPS-induced human THP-M cells assessed as NLRP3 mRNA expression at 10 to 50 uM pretreated for 24 hrs followed by stimulated with LPS for 4 hrs by qRT-PCR analysis", "assay_type": "functional, cell-based", "details": "dose 10-50 µM, time 28.0 hrs"}, "[4]": {"assay": "AUC (0 to infinity) in Sprague-Dawley rat at 20 mg/kg, IG measured upto 1440 mins by LC-MS/MS analysis", "assay_type": "ADME, organism-based", "details": "in vivo, po"}, "Rattus norvegicus [5]": {"tested_on": "Rattus norvegicus", "assay": "(§1) Anti-inflammatory activity against complete Freund's adjuvant (CFA)-induced arthritis rat model assessed as reduction in IL-1beta in rat synovium from the left rear ankle at 20 to 80 mg/kg, ip treated after 17 days of CFA challenge measured after 18 days (day 17 to 34) by immunohistochemistry based assay relative to model group", "assay_type": "functional, organism-based", "details": "dose 20-80 mg/kg, time 18.0 day"}, "Rattus norvegicus [6]": {"tested_on": "Rattus norvegicus", "assay": "Anti-inflammatory activity against complete Freund's adjuvant (CFA)-induced arthritis rat model assessed as decrease in thymus index at 20 to 80 mg/kg, ip treated after 17 days of CFA challenge measured after 18 days (day 17 to 34) relative to model group", "assay_type": "functional, organism-based", "details": "dose 20-80 mg/kg, time 18.0 day"}, "[7]": {"assay": "Bioavailability in Sprague-Dawley rat at 20 mg/kg, ip measured upto 720 mins by LC-MS/MS analysis", "assay_type": "ADME, organism-based", "details": "in vivo"}, "[8]": {"assay": "Cytotoxicity against human THP-1 cells assessed as cellular proliferation inhibition measured after 48 hrs by MTT assay", "assay_type": "toxicity, cell-based"}, "Rattus norvegicus [9]": {"tested_on": "Rattus norvegicus", "assay": "Anti-inflammatory activity against complete Freund's adjuvant (CFA)-induced arthritis rat model assessed as recovery in degree of swelling in right hind paw at 20 to 80 mg/kg, ip treated after 17 days of CFA challenge measured after 18 days (day 17 to 34) relative to control", "assay_type": "functional, organism-based", "details": "dose 20-80 mg/kg, time 18.0 day"}, "Rattus norvegicus [10]": {"tested_on": "Rattus norvegicus", "assay": "as §1, with “NLRP3” for “IL-1beta”, “immunofluorescence” for “immunohistochemistry”", "assay_type": "functional, organism-based", "details": "dose 20-80 mg/kg, time 18.0 day"}, "Rattus norvegicus [11]": {"tested_on": "Rattus norvegicus", "assay": "Anti-inflammatory activity against complete Freund's adjuvant (CFA)-induced arthritis rat model assessed as decrease in spleen index at 20 to 80 mg/kg, ip treated after 17 days of CFA challenge measured after 18 days (day 17 to 34) relative to model group", "assay_type": "functional, organism-based", "details": "dose 20-80 mg/kg, time 18.0 day"}, "Rattus norvegicus [12]": {"tested_on": "Rattus norvegicus", "assay": "as §1, with “immunofluorescence” for “immunohistochemistry”", "assay_type": "functional, organism-based", "details": "dose 20-80 mg/kg, time 18.0 day"}, "[13]": {"assay": "Apparent clearance during terminal phase in Sprague-Dawley rat at 20 mg/kg, IG measured upto 1440 mins by LC-MS/MS analysis", "assay_type": "ADME, organism-based", "details": "in vivo, po"}, "[14]": {"assay": "AUC (0 to infinity) in Sprague-Dawley rat at 20 mg/kg, ip measured upto 720 mins by LC-MS/MS analysis", "assay_type": "ADME, organism-based", "details": "in vivo, 12 h"}, "[15]": {"biological_target": "NLR family CARD domain-containing protein 4 (Homo sapiens) (UniProt Q9NPP4)", "sequence (Q9NPP4 whole entry, the tested form may be a part)": "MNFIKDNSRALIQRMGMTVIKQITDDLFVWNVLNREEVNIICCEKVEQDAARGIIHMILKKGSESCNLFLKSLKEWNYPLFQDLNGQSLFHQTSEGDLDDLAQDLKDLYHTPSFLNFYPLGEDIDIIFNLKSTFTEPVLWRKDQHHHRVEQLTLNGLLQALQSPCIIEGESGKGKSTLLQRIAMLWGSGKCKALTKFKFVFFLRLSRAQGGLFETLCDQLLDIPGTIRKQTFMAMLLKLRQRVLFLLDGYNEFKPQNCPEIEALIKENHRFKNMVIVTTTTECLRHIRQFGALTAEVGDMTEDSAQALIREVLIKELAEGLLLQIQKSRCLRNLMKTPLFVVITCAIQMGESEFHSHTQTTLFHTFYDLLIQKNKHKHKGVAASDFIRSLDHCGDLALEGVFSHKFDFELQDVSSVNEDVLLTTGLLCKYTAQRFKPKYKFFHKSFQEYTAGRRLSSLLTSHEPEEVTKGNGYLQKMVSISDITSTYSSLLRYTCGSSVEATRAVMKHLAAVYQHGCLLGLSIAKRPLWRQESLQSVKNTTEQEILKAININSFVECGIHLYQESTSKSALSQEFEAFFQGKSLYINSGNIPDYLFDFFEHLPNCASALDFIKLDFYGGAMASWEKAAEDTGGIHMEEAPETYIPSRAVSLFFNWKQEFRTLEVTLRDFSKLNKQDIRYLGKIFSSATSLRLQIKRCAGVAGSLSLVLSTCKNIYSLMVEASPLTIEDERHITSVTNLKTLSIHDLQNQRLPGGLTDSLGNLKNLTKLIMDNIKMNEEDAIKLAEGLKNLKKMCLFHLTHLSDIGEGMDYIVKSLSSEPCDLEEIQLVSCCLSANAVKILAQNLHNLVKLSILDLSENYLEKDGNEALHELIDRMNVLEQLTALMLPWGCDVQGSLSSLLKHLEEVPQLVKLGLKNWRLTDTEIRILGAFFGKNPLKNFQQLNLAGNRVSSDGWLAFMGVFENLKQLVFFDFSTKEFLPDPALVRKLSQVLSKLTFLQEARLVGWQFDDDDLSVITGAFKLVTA", "assay": "Inhibition of NLRC4 inflammasome in flagellin of Salmonella typhimurium-induced human THP-M cells assessed as inhibition of IL-1beta level at 20 to 60 uM pretreated for 24 hrs followed by stimulated with LPS by ELISA", "assay_type": "cell-based", "details": "dose 20-60 µM"}}, "note": "Calls of active or inactive are those of the source. The calls are words filed in the database; no cut-off is given here.", "data": [{"smiles": "COCCCNC(=O)c1ccc(Cn2c(SCC3CCCCC3)nc3ccncc32)cc1", "values": [{"measurement": "inhibition", "setting": "[1]", "result": "inactive"}, {"measurement": "Activity", "setting": "THP-M [2]", "result": "inactive"}, {"measurement": "Activity", "setting": "THP-M [3]", "result": "inactive"}, {"measurement": "AUC(0-inf)", "setting": "[4]", "result": 867, "unit": "ng·h/mL"}, {"measurement": "Activity", "setting": "Rattus norvegicus [5]", "result": "Active"}, {"measurement": "Activity", "setting": "Rattus norvegicus [6]", "result": "Active"}, {"measurement": "bioavailability", "setting": "[7]", "result": 11.5, "unit": "%"}, {"measurement": "IC50 at 48 h", "setting": "[8]", "result": "> 100", "unit": "µM"}, {"measurement": "Activity", "setting": "Rattus norvegicus [9]", "result": "Active"}, {"measurement": "Activity", "setting": "Rattus norvegicus [10]", "result": "Active"}, {"measurement": "Activity", "setting": "Rattus norvegicus [11]", "result": "Active"}, {"measurement": "Activity", "setting": "Rattus norvegicus [12]", "result": "Active"}, {"measurement": "CL/F", "setting": "[13]", "result": 410, "unit": "mL/min/kg"}, {"measurement": "AUC", "setting": "[14]", "result": 112685, "unit": "ng·min/mL"}, {"measurement": "inhibition", "setting": "[15]", "result": "inactive"}]}]}
